From patent publication US12331026B2 (NiKang Therapeutics, Inc., priority 2022, dated 2025)

molecular target: T1, CDK2 (Homo sapiens, UniProt P24941); assay: Phospho-RB measurement in OVCAR3 cells (HTRF phospho-RB S807/811); type: cell-based; conditions: phosphorylation of RB protein at S807/811, HTRF, 24 h compound treatment, 0.3 to 10,000 nM, read-out: pRb (uM)
T1 construct: endogenous in cells; host or cells: OVCAR3 cells
In short: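 IC50 values come from four-parameter logistic fits of the DMSO-normalised 665/620 nm TR-FRET ratio for phospho-RB (S807/811). Antibody detection ran 4 h at room temperature.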

| Structure (SMILES) | IC50 [µM] |
| --- | --- |
| CN1CC2CCC(C1)N2c1nc(-c2cccc(NS(=O)(=O)c3c(F)cccc3OC(F)F)c2F)c(-c2ccnc(NC3CC4(C3)CS(=O)(=O)C4)n2)s1 [Example 66, 2-(difluoromethoxy)-N-(3-(5-(2-((2,2-dioxido-2-thiaspiro[3.3]-heptan-6-yl)amino)pyrimidin-4-yl)-2-(3-methyl-3,8-diazabicyclo[3.2.1]octan-8-yl)thiazol-4-yl)-2-fluorophenyl)-6-fluorobenzenesulfonamide] | 0.15 |
| O=S1(=O)C[C@@H]2[C@H](C1)[C@H]2Nc1nccc(-c2sc(C3(C(F)F)CC3)nc2-c2cccc(NS(=O)(=O)c3c(F)cccc3OC(F)F)c2F)n1 [Example 129, 2-(difluoromethoxy)-N-(3-(2-(1-(difluoromethyl)cyclopropyl)-5-(2-(((1R,5S,6r)-3,3-dioxido-3-thiabicyclo[3.1.0]hexan-6-yl)amino)-pyrimidin-4-yl)thiazol-4-yl)-2-fluorophenyl)-6-fluorobenzene-sulfonamide] | 0.09 |
| O=S1(=O)C[C@@H]2[C@H](C1)[C@H]2Nc1nccc(-c2sc(C3(C(F)F)CC3)nc2-c2cccc(NS(=O)(=O)c3c(F)cccc3F)c2F)n1 [Example 98, N-(3-(2-(1-(difluoromethyl)cyclopropyl)-5-(2-(((1R,5S,6r)-3,3-dioxido-3-thiabicyclo[3.1.0]hexan-6-yl)amino)pyrimidin-4-yl)thiazol-4-yl)-2-fluorophenyl)-2,6-difluorobenzenesulfonamide] | 0.13 |
| O=S1(=O)C[C@@H]2[C@H](C1)[C@H]2Nc1nccc(-c2sc(N3C4CCC3CN(C3CCC3)C4)nc2-c2cccc(NS(=O)(=O)c3c(F)cccc3C(F)(F)F)c2F)n1 [Example 131, N-(3-(2-(3-cyclobutyl-3,8-diazabicyclo[3.2.1]octan-8-yl)-5-(2-(((1R,5S,6r)-3,3-dioxido-3-thiabicyclo[3.1.0]hexan-6-yl)amino)-pyrimidin-4-yl)thiazol-4-yl)-2-fluorophenyl)-2-fluoro-6-(trifluoromethyl)benzenesulfonamide] | 0.12 |
| O=S1(=O)C[C@@H]2[C@H](C1)[C@@H]2Nc1nccc(-c2sc(C34CC5CC(CC(C5)C3)C4)nc2-c2cccc(NS(=O)(=O)c3c(F)cccc3F)c2F)n1 [Example 76, N-(3-(2-((3R,5R,7R)-adamantan-1-yl)-5-(2-(((1R,5S,6s)-3,3-dioxido-3-thiabicyclo[3.1.0]hexan-6-yl)amino)pyrimidin-4-yl)thiazol-4-yl)-2-fluorophenyl)-2,6-difluorobenzenesulfonamide] | 0.87 |
| CC1CCC(C)N1c1nc(-c2cccc(NS(=O)(=O)c3c(F)cccc3F)c2F)c(-c2ccnc(NC3CC4(C3)CS(=O)(=O)C4)n2)s1 (stereo not drawn) [Example 65, N-(3-(2-(2,5-dimethylpyrrolidin-1-yl)-5-(2-((2,2-dioxido-2-thiaspiro[3.3]heptan-6-yl)amino)pyrimidin-4-yl)thiazol-4-yl)-2-fluorophenyl)-2,6-difluorobenzenesulfonamide] | 0.39 |
| O=S1(=O)C[C@H]2C[C@H](Nc3nccc(-c4sc(C56CC(C5)C6)nc4-c4cccc(NS(=O)(=O)c5c(F)cccc5F)c4F)n3)C[C@H]2C1 [Example 152, N-(3-(2-(bicyclo[1.1.1]pentan-1-yl)-5-(2-(((3aR,5s,6aS)-2,2-dioxidohexahydro-1H-cyclopenta[c]thiophen-5-yl)amino)pyrimidin-4-yl)thiazol-4-yl)-2-fluorophenyl)-2,6-difluorobenzenesulfonamide] | 0.15 |
| O=S1(=O)CC2(CC(Nc3nccc(-c4sc(C5(C(F)F)CC5)nc4-c4cccc(NS(=O)(=O)c5c(F)cccc5C(F)(F)F)c4F)n3)C2)C1 [Example 80, N-(3-(2-(1-(difluoromethyl)cyclopropyl)-5-(2-((2,2-dioxido-2-thiaspiro[3.3]heptan-6-yl)amino)pyrimidin-4-yl)thiazol-4-yl)-2-fluorophenyl)-2-fluoro-6-(trifluoromethyl)benzenesulfonamide] | 0.06 |
| O=S1(=O)C[C@@H]2[C@H](C1)[C@H]2Nc1nccc(-c2sc(C34CC5CC(CC(C5)C3)C4)nc2-c2cccc(NS(=O)(=O)c3c(F)cccc3F)c2F)n1 [Example 77, N-(3-(2-((3R,5R,7R)-adamantan-1-yl)-5-(2-(((1R,5S,6r)-3,3-dioxido-3-thiabicyclo[3.1.0]hexan-6-yl)amino)pyrimidin-4-yl)thiazol-4-yl)-2-fluorophenyl)-2,6-difluorobenzenesulfonamide] | 0.24 |
| O=S1(=O)C[C@@H]2[C@H](C1)[C@@H]2Nc1nccc(-c2sc(C34CCC(CC3)C4)nc2-c2cccc(NS(=O)(=O)c3c(F)cccc3F)c2F)n1 [Example 73, N-(3-(2-(bicyclo[2.2.1]heptan-1-yl)-5-(2-(((1R,5S,6s)-3,3-dioxido-3-thiabicyclo[3.1.0]hexan-6-yl)amino)pyrimidin-4-yl)thiazol-4-yl)-2-fluorophenyl)-2,6-difluorobenzenesulfonamide] | 0.6 |
| CS(=O)(=O)[C@H]1CC[C@@H](Nc2nccc(-c3sc(C45CC(C4)C5)nc3-c3cccc(NS(=O)(=O)c4c(F)cccc4C(F)(F)F)c3F)n2)CC1 [Example 132, N-(3-(2-(bicyclo[1.1.1]pentan-1-yl)-5-(2-(((1s,4s)-4-(methylsulfonyl)cyclohexyl)amino)pyrimidin-4-yl)thiazol-4-yl)-2-fluorophenyl)-2-fluoro-6-(trifluoromethyl)benzenesulfonamide] | 0.05 |
| CS(=O)(=O)[C@H]1CC[C@H](Nc2nccc(-c3sc(C45CC(C(F)(F)F)(C4)C5)nc3-c3cccc(NS(=O)(=O)c4c(F)cccc4C(F)(F)F)c3F)n2)CC1 [Example 35, 2-fluoro-N-(2-fluoro-3-(5-(2-(((1r,4r)-4-(methylsulfonyl)-cyclohexyl)amino)pyrimidin-4-yl)-2-(3-(trifluoromethyl)-bicyclo[1.1.1]pentan-1-yl)thiazol-4-yl)phenyl)-6-(trifluoromethyl)-benzenesulfonamide] | 0.29 |
| O=S1(=O)CC2(CC(Nc3nccc(-c4sc(N5C6CCC5CN(CCC(F)(F)F)C6)nc4-c4cccc(NS(=O)(=O)c5c(F)cccc5F)c4F)n3)C2)C1 [Example 142, N-(3-(5-(2-((2,2-dioxido-2-thiaspiro[3.3]heptan-6-yl)amino)-pyrimidin-4-yl)-2-(3-(3,3,3-trifluoropropyl)-3,8-diazabicyclo-[3.2.1]octan-8-yl)thiazol-4-yl)-2-fluorophenyl)-2,6-difluorobenzenesulfonamide] | 0.32 |
| CS(=O)(=O)[C@H]1CC[C@H](Nc2nccc(-c3sc(C45CC(C4)C5)nc3-c3cccc(NS(=O)(=O)c4c(F)cccc4C(F)(F)F)c3F)n2)CC1 [Example 36] | 0.09 |
| CS(=O)(=O)C1CCC(Nc2nccc(-c3sc(C45CC(Cl)(C4)C5)nc3-c3cccc(NS(=O)(=O)c4c(F)cccc4C(F)(F)F)c3F)n2)CC1 (stereo not drawn) [Example 8, N-(3-(2-(3-chlorobicyclo[1.1.1]pentan-1-yl)-5-(2-(((1s,4s)-4-(methylsulfonyl)cyclohexyl)amino)pyrimidin-4-yl)thiazol-4-yl)-2-fluorophenyl)-2-fluoro-6-(trifluoromethyl)benzenesulfonamide] | 0.24 |
